Molecular target: tyramine oxidase (microbial)
Experiment: Compound was evaluated for inhibition of Microbial tyramine oxidase; irreversible

Compound `NNC(=O)C1(c2ccccc2)CC1F` (stereo unspecified) [2-Fluoro-1-phenyl-cyclopropanecarboxylic acid hydrazide] has an IC50 of 20 µM.

— BindingDB's records for doi:10.1021/jm030398k (National Institute of Diabetes and Digestive and Kidney …, 2004)
